Test results reported in patent US20200339691A1, “PROTEINACEOUS MOLECULES AND USES THEREFOR” (priority 2018, published 2020).
Where a SMILES comes first, the peptide text is derived from it. The star is where a group is joined. Myristoyl = CCCCCCCCCCCCCC(=O)*

What was measured:
[1] = tested on: CD44^hiCD24^lo CSCs in MDA-MB-231 cells; assay: FACS analysis of CD44^hiCD24^lo cancer stem cells in MDA-MB-231 cells treated with P1 analogues; format: cell-based, human; conditions: 50 μM peptide, 48 hours; for CD44^hiCD24^lo CSCs (%) / COI, Live Single CD44^hiCD24^lo CSCs (Cell Count): n = 1; for Average Inhibition of CSCs (%) / CD44^hiCD24^lo CSCs (%) Repeat 1 / CD44^hiCD24^lo CSCs (%) Repeat 2 / CD44^hiCD24^lo CSCs (%) Repeat 3: n = 3
Experimental: Analogues of P1 (Table 6) were designed and synthesized in accordance with the procedure of Example 5. The ability of these analogues to inhibit cancer stem cells was determined using FACS analysis on MDA-MB-231 cells, which constitutively contain approximately 90% CD44^hiCD24^lo cancer stem cells, treated with the peptides.
(§1) Non-adherent cells were removed during the washing steps.

[2] = tested on: MDA-MB-231 cells; format: cell-based, human; conditions: 50 μM peptide, 48 hours, n = 1;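 on COI, Live Single Cells (Cell Count): live means Hoechst-negative events among single cells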
Text: as §1

Compound | Inhibition of CSCs (%) Repeat 1 [1] | Inhibition of CSCs (%) Repeat 2 [1] | Inhibition of CSCs (%) Repeat 3 [1] | CD44^hiCD24^lo CSCs (%) [1] | COI, Live Single CD44^hiCD24^lo CSCs (Cell Count) [1] | Average Inhibition of CSCs (%) [1] | CD44^hiCD24^lo CSCs (%) Repeat 1 [1] | CD44^hiCD24^lo CSCs (%) Repeat 2 [1] | CD44^hiCD24^lo CSCs (%) Repeat 3 [1] | COI (Cell Count) [2] | COI, Live Single Cells (Cell Count) [2] | COI, Single (Cell Count) [2] | Total Cell Count [2]
CCCCCCCCCCCCCC(=O)N[C@@H](CC(C)C)C(=O)N[C@H](C(=O)N[C@@H](Cc1ccccc1)C(=O)N[C@@H](CC(C)C)C(=O)N[C@@H](Cc1ccccc1)C(=O)N[C@@H](CCCNC(=N)N)C(=O)N[C@@H](CC(C)C)C(=O)N[C@@H](CCCNC(=N)N)C(=O)N[C@@H](CCCCN)C(=O)NCC(=O)N[C@@H](CCCNC(=N)N)C(=O)N[C@@H](CCSC)C(=O)N[C@@H](CCSC)C(=O)N[C@@H](CC(=O)O)C(=O)N[C@H](C(=O)N[C@@H](CCCCN)C(=O)N[C@@H](CCCCN)C(N)=O)C(C)C)[C@@H](C)O [Peptide 2853812, Myristoyl-LTFLFRLRKGRMMDVKK-NH2] (Myristoyl-LTFLFRLRKGRMMDVKK-NH2) | 80.95% | 86.31% | 86.89% | 16.67% | 14 | 84.72% | 17.07% | 12.28% | 11.76% | 108 | 84 | 87 | 3794
CCCCCCCCCCCCCC(=O)N[C@@H](CC(C)C)C(=O)N[C@H](C(=O)N[C@@H](Cc1ccccc1)C(=O)N[C@H](C(=O)N[C@@H](CCC(=O)O)C(=O)N[C@@H](CCCNC(=N)N)C(=O)N[C@@H](CC(C)C)C(=O)N[C@@H](CCCNC(=N)N)C(=O)N[C@@H](CCCCN)C(=O)NCC(=O)N[C@@H](CCCNC(=N)N)C(=O)N[C@@H](CCSC)C(=O)N[C@@H](CCSC)C(=O)N[C@@H](CC(=O)O)C(=O)N[C@H](C(=O)N[C@@H](CCCCN)C(=O)N[C@@H](CCCCN)C(N)=O)C(C)C)[C@@H](C)CC)[C@@H](C)O [Peptide 2853813, Myristoyl-LTFIERLRKGRMMDVKK-NH2] (Myristoyl-LTFIERLRKGRMMDVKK-NH2) | 77.05% | 75.44% | 67.63% | 27.78% | 5 | 73.37% | 20.57% | 22.04% | 29.05% | 55 | 18 | 48 | 867
CCCCCCCCCCCCCC(=O)N[C@@H](CC(C)C)C(=O)N[C@H](C(=O)N[C@@H](Cc1ccccc1)C(=O)N[C@H](C(=O)N[C@@H](Cc1ccc(O)cc1)C(=O)N[C@@H](CCCNC(=N)N)C(=O)N[C@@H](CC(C)C)C(=O)N[C@@H](CCCNC(=N)N)C(=O)N[C@@H](CCCCN)C(=O)NCC(=O)N[C@@H](CCCNC(=N)N)C(=O)N[C@@H](CCSC)C(=O)N[C@@H](CCSC)C(=O)N[C@@H](CC(=O)O)C(=O)N[C@H](C(=O)N[C@@H](CCCCN)C(=O)N[C@@H](CCCCN)C(N)=O)C(C)C)[C@@H](C)CC)[C@@H](C)O [Peptide 2853814, Myristoyl-LTFIYRLRKGRMMDVKK-NH2] (Myristoyl-LTFIYRLRKGRMMDVKK-NH2) | 73.80% | 76.59% | 77.85% | 13.86% | 51 | 76.08% | 23.48% | 21.00% | 19.88% | 437 | 368 | 387 | 999
CCCCCCCCCCCCCC(=O)N[C@@H](CC(C)C)C(=O)N[C@H](C(=O)N[C@@H](Cc1ccccc1)C(=O)N[C@H](C(=O)N[C@@H](Cc1c[nH]cn1)C(=O)N[C@@H](CCCNC(=N)N)C(=O)N[C@@H](CC(C)C)C(=O)N[C@@H](CCCNC(=N)N)C(=O)N[C@@H](CCCCN)C(=O)NCC(=O)N[C@@H](CCCNC(=N)N)C(=O)N[C@@H](CCSC)C(=O)N[C@@H](CCSC)C(=O)N[C@@H](CC(=O)O)C(=O)N[C@H](C(=O)N[C@@H](CCCCN)C(=O)N[C@@H](CCCCN)C(N)=O)C(C)C)[C@@H](C)CC)[C@@H](C)O [Peptide 2853815, Myristoyl-LTFIHRLRKGRMMDVKK-NH2] (Myristoyl-LTFIHRLRKGRMMDVKK-NH2) | 6.67% | 7.21% | 8.72% | 71.33% | 199 | 7.53% | 83.65% | 83.25% | 81.91% | 320 | 279 | 300 | 1114
CCCCCCCCCCCCCC(=O)N[C@@H](CC(C)C)C(=O)N[C@H](C(=O)N[C@@H](Cc1ccccc1)C(=O)N[C@H](C(=O)N[C@@H](CC(C)C)C(=O)N[C@@H](CCCNC(=N)N)C(=O)N[C@@H](CC(C)C)C(=O)N[C@@H](CCCNC(=N)N)C(=O)N[C@@H](CCCCN)C(=O)NCC(=O)N[C@@H](CCCNC(=N)N)C(=O)N[C@@H](CCSC)C(=O)N[C@@H](CCSC)C(=O)N[C@@H](CC(=O)O)C(=O)N[C@H](C(=O)N[C@@H](CCCCN)C(=O)N[C@@H](CCCCN)C(N)=O)C(C)C)[C@@H](C)CC)[C@@H](C)O [Peptide 2853816, Myristoyl-LTFILRLRKGRMMDVKK-NH2] (Myristoyl-LTFILRLRKGRMMDVKK-NH2) | 69.57% | 68.04% | 65.42% | 12.50% | 12 | 67.68% | 27.27% | 28.67% | 31.03% | 160 | 96 | 130 | 1747
CCCCCCCCCCCCCC(=O)N[C@@H](CC(C)C)C(=O)N[C@H](C(=O)N[C@@H](Cc1ccccc1)C(=O)N[C@H](C(=O)N[C@@H](Cc1ccccc1)C(=O)N[C@@H](CCC(=O)O)C(=O)N[C@@H](CC(C)C)C(=O)N[C@@H](CCCNC(=N)N)C(=O)N[C@@H](CCCCN)C(=O)NCC(=O)N[C@@H](CCCNC(=N)N)C(=O)N[C@@H](CCSC)C(=O)N[C@@H](CCSC)C(=O)N[C@@H](CC(=O)O)C(=O)N[C@H](C(=O)N[C@@H](CCCCN)C(=O)N[C@@H](CCCCN)C(N)=O)C(C)C)[C@@H](C)CC)[C@@H](C)O [Peptide 2853817, Myristoyl-LTFIFELRKGRMMDVKK-NH2] (Myristoyl-LTFIFELRKGRMMDVKK-NH2) | 88.00% | 91.08% | 82.27% | 13.76% | 56 | 87.12% | 10.75% | 8.00% | 15.91% | 511 | 407 | 463 | 899
CCCCCCCCCCCCCC(=O)N[C@@H](CC(C)C)C(=O)N[C@H](C(=O)N[C@@H](Cc1ccccc1)C(=O)N[C@H](C(=O)N[C@@H](Cc1ccccc1)C(=O)N[C@H](C(=O)N[C@@H](CC(C)C)C(=O)N[C@@H](CCCNC(=N)N)C(=O)N[C@@H](CCCCN)C(=O)NCC(=O)N[C@@H](CCCNC(=N)N)C(=O)N[C@@H](CCSC)C(=O)N[C@@H](CCSC)C(=O)N[C@@H](CC(=O)O)C(=O)N[C@H](C(=O)N[C@@H](CCCCN)C(=O)N[C@@H](CCCCN)C(N)=O)C(C)C)C(C)C)[C@@H](C)CC)[C@@H](C)O [Peptide 2853818, Myristoyl-LTFIFVLRKGRMMDVKK-NH2] (Myristoyl-LTFIFVLRKGRMMDVKK-NH2) | 88.46% | 97.94% | 93.25% | 25.00% | 5 | 93.21% | 10.34% | 1.85% | 6.06% | 33 | 20 | 25 | 275
CCCCCCCCCCCCCC(=O)N[C@@H](CC(C)C)C(=O)N[C@H](C(=O)N[C@@H](Cc1ccccc1)C(=O)N[C@H](C(=O)N[C@@H](Cc1ccccc1)C(=O)N[C@@H](CCCNC(=N)N)C(=O)N[C@@H](Cc1ccccc1)C(=O)N[C@@H](CCCNC(=N)N)C(=O)N[C@@H](CCCCN)C(=O)NCC(=O)N[C@@H](CCCNC(=N)N)C(=O)N[C@@H](CCSC)C(=O)N[C@@H](CCSC)C(=O)N[C@@H](CC(=O)O)C(=O)N[C@H](C(=O)N[C@@H](CCCCN)C(=O)N[C@@H](CCCCN)C(N)=O)C(C)C)[C@@H](C)CC)[C@@H](C)O [Peptide 2853819, Myristoyl-LTFIFRFRKGRMMDVKK-NH2] (Myristoyl-LTFIFRFRKGRMMDVKK-NH2) | 98.02% | 89.55% | 93.19% | 2.62% | 5 | 93.59% | 1.78% | 9.38% | 6.11% | 563 | 191 | 372 | 4572
